From US10617654B2, “Use of fenoterol and fenoterol analogues in the treatment of glioblastomas and astrocytomas” (priority 2010, dated 2020)
Where “and” joins values, the source holds several entries; their conditions need not be identical. Equal values may be shown once. Read-outs that look alike come from different tables or passages of the source.

Experiments:
1321N1 cells [1] = assay: Cell cycle distribution by flow cytometry in 1321N1 cells; assay type: cell-based, human
Excerpt: Untreated cells were used as controls.

[2] = for Individual plasma concentration: individual rat; for Individual plasma concentration / Plasma concentration, Average / systemic exposure (AUC) compared to (R,R)-fenoterol: 5 mg/kg IV; for Plasma concentration, Average / A (zero time intercept, alpha phase) / AUC / B (zero time intercept, beta phase) / Cl / T1/2 (K10) / Vss / systemic exposure (AUC) compared to (R,R)-fenoterol: rats; for A (zero time intercept, alpha phase) / AUC / B (zero time intercept, beta phase) / Cl / T1/2 (K10) / Vss: 5 mg/kg intravenous, two-compartment open model
Description: Dose calculations (mg/kg) were based on the individual body weight measured on the day of treatment. Study duration for pharmacokinetic studies was 6 hours. […] Urine was collected for 0-6 hours and 6 to 24 hours from 3 rats in each treatment group.
In the two-compartment model, the drug distributes into two compartments, the central compartment and the tissue, or peripheral compartment. The central compartment represents the blood, extracellular fluid, and highly perfused tissues. The drug distributes rapidly and uniformly in the central compartment. A second compartment, known as the tissue or peripheral compartment, contains tissues in which the drug equilibrates more slowly. Drug transfer between the two compartments is assumed to take place by first-order processes.
The following abbreviations are utilized in Table 4 below: alpha—macro rate constant associated with the distribution phase; beta—macro rate constant associated with the elimination phase; A, B—zero time intercept associated with the alpha phase and beta phase, respectively; AUC—area under the curve; T1/2 (K10)—half-life associated with the rate constant K10; K10—elimination rate—rate at which the drug leaves the system from the central compartment; K12—rate at which drug enters tissue compartment from the central compartment; K21—rate at which drug enters central compartment from tissue compartment; V1—volume of distribution of the central compartment; V2—volume of distribution of the tissue compartment; Vss—volume of distribution at steady state; and Cl—clearance.

[3] = tested on: p27, phospho-Akt, cyclin D1, cyclin A, ERK1/2 in 1321N1 cells; assay: Western blot analysis of G1 arrest proteins in 1321N1 cells; assay type: cell-based, human
Excerpt: The ECL Plus Western Blotting Detection System of Amersham Biosciences (Piscataway, N.J.) and the procedure recommended by the manufacturer were used for the detection of antigens. Protein bands were quantified by analyzing the images obtained using an Alphaimager™ S-3400 (Alpha Innotech Corp., San Leandro, Calif.).

[4] = Brain and plasma analysis of [3H]-(R,R)-methoxyfenoterol after IV administration; assay type: in vivo, male Sprague-Dawley rats; conditions: for Brain, Mean / Percent of Dose in Brain, Mean / Plasma, Mean: three rats; for Brain, Individual / Percent of Dose in Brain, Individual / Plasma, Individual: individual rat
Description: An overview of the research study design for evaluating the brain-to-plasma distribution of [^3H]
(specific activity 57 Ci/mmol); vehicle was sterile saline, 0.9% sodium chloride, USP. Dose formulations were prepared on the day of the study. The amount of radioactivity in the dose formulation was determined by liquid scintillation. The study lasted for an hour and radioactivity levels in plasma and brain tissue were evaluated at the conclusion of the study. Approximately 5 mls of whole blood was collected. Blood samples were collected via cardiac puncture, transferred into a tube containing K3EDTA as the anticoagulant and kept on wet ice until processed to plasma. To generate plasma, samples were centrifuged within 15 minutes of collection at 2,500 RPM for 15 minutes at room temperature. Plasma was divided equally into three labeled cryovials and stored on ample dry ice until transferred to a freezer set at ≤−20° C. for storage until analysis. Duplicate aliquots were weighed and then combined with scintillation cocktail. The [^3H] radioactivity was determined on a liquid scintillation counter. Brain samples were snap frozen in liquid nitrogen and stored at ≤−70° C. until analysis. Whole brain tissue was homogenized and the weight of the homogenate was determined. Duplicate aliquots from the homogenate were weighed, solubilized and then combined with scintillation cocktail. The [^3H] radioactivity was determined on a liquid scintillation counter.

1321N1 xenograft = 1321N1 xenograft implanted in the flank of SKID mice; assay type: in vivo; conditions: IP twice a day; day 3-10 30 mg/kg/day, day 10-42 50 mg/kg/day
rat cardiomyocyte = assay: Rat cardiomyocyte contractility model; assay type: cell-based
1321N1 cells [5] = assay: Inhibition of mitogenesis, [3H]-thymidine incorporation in 1321N1 cells; assay type: cell-based, human
β2-AR [6] = target: T1, β2-AR (Homo sapiens (Human), UniProt P07550); conditions: previously reported; cited from earlier work
β2-AR [7] = target: T1, β2-AR; assay type: cell-based; conditions: 1321N1 cells, basal below 0.5 nmol/mg protein
Description: HEK-β2-AR, 1321N1 or U87MG cells were plated in 96-well plates. When the cells reached confluence, the medium was removed and each well rinsed with 0.1 mL of Krebs-HEPES buffer (130 mM NaCl, 4.8 mM KCl, 1.2 mM KH2PO4, 1.3 mM CaCl2, 1.2 mM MgSO4, 25 mM HEPES, and 10 mM glucose, pH 7.3). The plates were preincubated for 10 minutes at room temperature with buffer alone; then test compound diluted in buffer was added to the wells for quadruplicate determinations. The plates were incubated for an additional 10 minutes with the test compound. After incubation, the medium was removed and 0.1 mL of 0.5 M formic acid was added. After a minimum of 1 hour, the supernatant was removed and lyophilized. cAMP was quantitated using the protein kinase binding assay of Gilman. The amount of protein per well was determined using the BCA protein determination kit (Thermo Scientific Pierce, Rockford, Ill.) and was used to calculate the amount of cAMP/mg/well.

[8] = Homo sapiens, 1321-N1, read-out: Mitogenesis Inhibition IC50
[9] = 5 mg/kg IV, 5 min, listed as [^3H]—(R,R)-methoxyfenoterol
[10] = 5 mg/kg IV, 60 min, listed as [^3H]—(R,R)-methoxyfenoterol

T1 sequence (P07550 whole entry): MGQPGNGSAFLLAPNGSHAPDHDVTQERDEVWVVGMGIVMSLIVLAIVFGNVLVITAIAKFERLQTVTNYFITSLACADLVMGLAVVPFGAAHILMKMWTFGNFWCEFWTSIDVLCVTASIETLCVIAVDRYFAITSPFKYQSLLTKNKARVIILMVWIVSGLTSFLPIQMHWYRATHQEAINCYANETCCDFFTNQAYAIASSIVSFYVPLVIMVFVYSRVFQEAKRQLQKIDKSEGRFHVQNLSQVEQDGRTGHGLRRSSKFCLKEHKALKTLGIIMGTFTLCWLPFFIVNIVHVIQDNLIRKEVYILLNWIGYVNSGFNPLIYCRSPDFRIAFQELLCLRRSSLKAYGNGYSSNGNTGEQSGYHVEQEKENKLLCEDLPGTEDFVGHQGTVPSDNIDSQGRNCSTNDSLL

C[C@H](Cc1ccc(O)cc1)NC[C@H](O)c1cc(O)cc(O)c1 [(R,R)-1, (R,R)-(−)-Fenoterol]
lowest dose arresting the cell cycle (1321N1 cells [1]): 0.1 nM
Individual plasma concentration ([2]; 15 min): 0.36 µg/mL
Individual plasma concentration ([2]; 30 min): 0.17 µg/mL and 0.50 µg/mL
Individual plasma concentration ([2]; 60 min): 0.05 µg/mL
Individual plasma concentration ([2]; 120 min): 0.03 µg/mL and 0.01 µg/mL
Individual plasma concentration ([2]; 300 min): 0.005 µg/mL
Individual plasma concentration ([2]; 360 min): 0.08 µg/mL and 0.03 µg/mL
Plasma concentration, Average ([2]; 15 min): 0.36 µg/mL
Plasma concentration, Average ([2]; 30 min): 0.34 µg/mL
Plasma concentration, Average ([2]; 60 min): 0.05 µg/mL
Plasma concentration, Average ([2]; 120 min): 0.02 µg/mL
Plasma concentration, Average ([2]; 240 min): 0.01 µg/mL
Plasma concentration, Average ([2]; 300 min): 0.005 µg/mL
Plasma concentration, Average ([2]; 360 min): 0.06 µg/mL
A (zero time intercept, alpha phase) [2]: 1.6300 µg/mL
AUC [2]: 29.6861 µg·min/mL
B (zero time intercept, beta phase) [2]: 0.0577 µg/mL
Cl [2]: 51.54 mL/min
T1/2 (K10) [2]: 12.19 min
Vss [2]: 1911.70 mL
phosphorylation of ERK1/2 [3]: only a modest effect
protein expression of cyclin A [3]: down-regulated
protein expression of cyclin D1 [3]: down-regulated
phosphorylation of Akt at Ser-473 ([3]; dose dependent, nanomolar concentrations): inhibited phosphorylation
protein levels of cyclin-dependent kinase inhibitor p27 ([3]; nanomolar concentrations): significantly increased

COc1ccc(C[C@@H](C)NC[C@H](O)c2cc(O)cc(O)c2)cc1.O=C(O)/C=C/C(=O)O [(R,R)-2, (R,R)-(−)-1-p-Methoxyphenyl-2-(β-3′,5′-dihydroxy-phenyl-β-oxy)ethylamino-propane Fumarate]
passage through the blood brain barrier ([4]; rats, IV): capable of passing through the blood brain barrier
Individual plasma concentration ([2]; 300 min, listed as (R,R)-methoxyfenoterol): 0.06 ug/ml and 0.07 ug/ml (3×) and 0.09 ug/ml
systemic exposure (AUC) compared to (R,R)-fenoterol [2]: significantly higher
Plasma concentration, Average ([2]; 15 min): 0.58 µg/mL
Plasma concentration, Average ([2]; 30 min): 0.41 µg/mL
Plasma concentration, Average ([2]; 60 min): 0.26 µg/mL
Plasma concentration, Average ([2]; 120 min): 0.17 µg/mL
Plasma concentration, Average ([2]; 240 min): 0.12 µg/mL
Plasma concentration, Average ([2]; 300 min): 0.07 µg/mL
Plasma concentration, Average ([2]; 360 min): 0.06 µg/mL
A (zero time intercept, alpha phase) [2]: 4.6437 µg/mL
AUC [2]: 96.1011 µg·min/mL
B (zero time intercept, beta phase) [2]: 0.3900 µg/mL
growth of 1321N1 xenograft (1321N1 xenograft): inhibit growth

COc1ccc(C[C@@H](NC[C@H](O)c2cc(O)cc(O)c2)C(C)C)cc1 [(R,R)-4-methoxy-isopropylfenoterol]
EC50 (rat cardiomyocyte): > 10 µM
IC50 (1321N1 cells [5]; [3H]-thymidine incorporation, 1321N1 cells, mean ± SD, n = 4, read-out: Mitogenesis Inhibition IC50): 0.946 µM

CC[C@H](Cc1ccc(O)cc1)NC[C@H](O)c1cc(O)cc(O)c1 [(R,R)-ethylfenoterol, (R,R)-(−)-ethylfenoterol]
EC50 (rat cardiomyocyte): 8.55 µM
IC50 (1321N1 cells [5]; [8]): 0.00144 µM

C[C@@H](Cc1cccc2ccccc12)NC[C@H](O)c1cc(O)cc(O)c1.O=C(O)/C=C/C(=O)O [(R,S)-5, (R,S)-(−)-5-{1-hydroxy-2-[1-methyl-2-(1-naphthyl)ethylamino]ethyl}-1,3-benzenediol fumarate]
Individual plasma concentration ([2]; 5 min, listed as (R,S)-naphthylfenoterol, fumarate): 2.52 µg/mL and 2.10 µg/mL
Individual plasma concentration ([2]; 240 min, listed as (R,S)-naphthylfenoterol, fumarate): 0.11 ug/ml (3×) and 0.13 ug/ml (2×)
Individual plasma concentration ([2]; 300 min, listed as (R,S)-naphthylfenoterol, fumarate): 0.10 ug/ml (2×) and 0.11 ug/ml (2×) and 0.12 ug/ml
systemic exposure (AUC) compared to (R,R)-fenoterol [2]: significantly higher
Plasma concentration, Average ([2]; 5 min): 2.11 µg/mL
Plasma concentration, Average ([2]; 15 min): 0.68 µg/mL
Plasma concentration, Average ([2]; 30 min): 0.43 µg/mL
Plasma concentration, Average ([2]; 60 min): 0.34 µg/mL
Plasma concentration, Average ([2]; 120 min): 0.24 µg/mL
Plasma concentration, Average ([2]; 240 min): 0.12 µg/mL
Plasma concentration, Average ([2]; 300 min): 0.11 µg/mL
Plasma concentration, Average ([2]; 360 min): 0.09 µg/mL
A (zero time intercept, alpha phase) [2]: 4.0365 µg/mL
AUC [2]: 116.88 µg·min/mL
B (zero time intercept, beta phase) [2]: 0.4372 µg/mL
Cl [2]: 12.66 mL/min
T1/2 (K10) [2]: 18.11 min
Vss [2]: 2203.75 mL

CC[C@@H](Cc1ccc(O)cc1)NC[C@H](O)c1cc(O)cc(O)c1 [(R,S)-ethylfenoterol, (R,S)-(−)-ethylfenoterol]
IC50 (1321N1 cells [5]; [8]): 0.0179 ± 0.00456 µM

C[C@@H](Cc1ccc(O)cc1)NC[C@@H](O)c1cc(O)cc(O)c1 [(S,S)-1, (S,S)-(+)-Fenoterol]
EC50 (rat cardiomyocyte): 55 µM

CC(C)NCC(O)c1ccc(O)c2[nH]c(=O)ccc12 (stereo not shown) [Compound 50]
Ki (β2-AR [6]): 0.17 µM
Ki β1/Ki β2 (β2-AR [6]): 1.7

NCC(O)c1ccc(O)c2[nH]c(=O)ccc12 (stereo not shown) [Compound 51]
Ki (β2-AR [6]): 6.3 µM
Ki β1/Ki β2 (β2-AR [6]): 1.3

Cc1ccc(OCC(O)C(C)NC(C)C)c2c1CCC2 (stereo not shown) [ICI 118-551, reference compound]
pA2 (1321N1 cells [5]; competitive inhibition of inhibitory effect of (R,R)-fenoterol, 1321N1 cells): 8.9
slope (pA2 analysis) (1321N1 cells [5]; inhibition of effect of (R,R)-fenoterol, 1321N1 cells): −1.3±0.3

COc1ccc(C[C@@H](C)NC[C@H](O)c2cc(O)cc(O)c2)cc1.Cl [[^3H]-(R,R)-methoxyfenoterol]
Brain, Mean ([4]; 5 mg/kg IV, 5 min): 0.92 μg-equiv/g
Percent of Dose in Brain, Mean ([4]; 5 mg/kg IV, 5 min): 0.14%
Plasma, Mean ([4]; 5 mg/kg IV, 5 min): 3.25 μg-equiv/ml
Brain, Mean [4, 9]: 0.92±0.10 μg-equiv/g
Plasma, Mean [4, 9]: 3.25±0.15 μg-equiv/ml
Brain, Mean ([4]; 5 mg/kg IV, 15 min): 0.80 μg-equiv/g
Percent of Dose in Brain, Mean ([4]; 5 mg/kg IV, 15 min): 0.12%
Plasma, Mean ([4]; 5 mg/kg IV, 15 min): 1.79 μg-equiv/ml
Brain, Mean ([4]; 5 mg/kg IV, 30 min): 0.72 μg-equiv/g
Percent of Dose in Brain, Mean ([4]; 5 mg/kg IV, 30 min): 0.11%
Plasma, Mean ([4]; 5 mg/kg IV, 30 min): 1.53 μg-equiv/ml
Brain, Mean ([4]; 5 mg/kg IV, 60 min): 0.70 μg-equiv/g
Percent of Dose in Brain, Mean ([4]; 5 mg/kg IV, 60 min): 0.11%
Plasma, Mean ([4]; 5 mg/kg IV, 60 min): 1.24 μg-equiv/ml
Brain, Mean [4, 10]: 0.70±0.37 μg-equiv/g
Plasma, Mean [4, 10]: 1.24±0.43 μg-equiv/ml
percent dose found in the brain, any given animal ([4]; 5 mg/kg IV, over 60 minutes): no more than 0.17%
decrease of plasma levels ([4]; from 5 minutes to 60 minutes, 5 mg/kg IV): 62%
Brain, Individual ([4]; 5 mg/kg IV, 5 min): 1.00 μg-equiv/g and 0.80 μg-equiv/g and 0.95 μg-equiv/g
Percent of Dose in Brain, Individual ([4]; 5 mg/kg IV, 5 min): 0.15% (2×) and 0.12%
Plasma, Individual ([4]; 5 mg/kg IV, 5 min): 3.30 μg-equiv/ml and 3.08 μg-equiv/ml and 3.37 μg-equiv/ml
Brain, Individual ([4]; 5 mg/kg IV, 15 min): 0.99 μg-equiv/g and 0.36 μg-equiv/g and 1.06 μg-equiv/g
Percent of Dose in Brain, Individual ([4]; 5 mg/kg IV, 15 min): 0.15% and 0.06% and 0.16%
Plasma, Individual ([4]; 5 mg/kg IV, 15 min): 2.19 μg-equiv/ml and 0.89 μg-equiv/ml and 2.29 μg-equiv/ml
Brain, Individual ([4]; 5 mg/kg IV, 30 min): 0.22 μg-equiv/g and 1.00 μg-equiv/g and 0.95 μg-equiv/g
Percent of Dose in Brain, Individual ([4]; 5 mg/kg IV, 30 min): 0.03% and 0.15% (2×)
Plasma, Individual ([4]; 5 mg/kg IV, 30 min): 0.63 μg-equiv/ml and 1.97 μg-equiv/ml and 2.00 μg-equiv/ml
Brain, Individual ([4]; 5 mg/kg IV, 60 min): 0.44 μg-equiv/g and 0.53 μg-equiv/g and 1.12 μg-equiv/g
Percent of Dose in Brain, Individual ([4]; 5 mg/kg IV, 60 min): 0.06% and 0.09% and 0.17%
Plasma, Individual ([4]; 5 mg/kg IV, 60 min): 0.97 μg-equiv/ml and 1.01 μg-equiv/ml and 1.73 μg-equiv/ml

C=C[C@@]1(C)CC(=O)[C@]2(O)[C@@]3(C)[C@@H](O)CCC(C)(C)[C@@H]3[C@H](O)[C@H](OC(C)=O)[C@@]2(C)O1 [forskolin]
intracellular concentration of cAMP after treatment (β2-AR [7]): ~4 nmol/mg protein
